Series [1] is described as follows: human serum (Cosmo Bio, 12181201). To be noted: 37 °C, up to 100 h.
Another series relates to Vero E6 cells. More on the design: method as in PMID 33786375. To be noted: read-out: CC50 (half-maximal cytotoxic concentration); cited from earlier work.
Series [2] has as its target T1, SARS-CoV-2 M^pro (Severe acute respiratory syndrome coronavirus 2, UniProt P0DTD1). Nature of the series: biochemical. The conditions noted are these: for kon: read-out: ka (kinetic association). It is filed as binding.
Series [3] deals with T1, SARS-CoV-2 M^pro. Nature of the series: biochemical. Format: biochemical.
Series [4] in a line: Cytotoxicity of GM4 and related macrocycles. The conditions noted are these: at concentrations as high as 100 µM. It is filed as cell-based.
The nature of series [5]: Serum stability assay in human serum (LC/MS).
A short description of series [6]: Antiviral activity in cells of GM4 and related macrocycles. It is filed as cell-based.
In another series the target is M^pro (Severe acute respiratory syndrome coronavirus 2, UniProt P0DTD1). It is filed as biochemical, SARS-CoV-2.
Series [7] has as its system recombinant SARS-CoV-2 M^pro. Kind of series: M^pro 6 mg ml^–1 in 20 mM HEPES (pH 7.5) and 50 mM NaCl, co-crystallization with GM4. To be noted: SARS-CoV-2, room temperature, crystals grown at 20 °C, up to one week.
The conditions of series [8]: read-out: EC50 (antiviral activity in cells); cited from earlier work.
The mark [9] stands for this setting: 37 °C, incubation time 1 h, relative to 0 h = 100%, technical replicates, 60 min.
Where [10] appears, read: 37 °C, incubation time 4 h, relative to 0 h = 100%, technical replicates, 240 min.
Where [11] appears, read: 37 °C, incubation time 8 h, relative to 0 h = 100%, technical replicates, 480 min.
Where [12] appears, read: 37 °C, incubation time 24 h, relative to 0 h = 100%, technical replicates, 1440 min.
Where [13] appears, read: human, Remaining peptide (%), 37 °C, incubation time 1 h, relative to 0 h = 100%, technical replicates.
[14] abbreviates: human, Remaining peptide (%), 37 °C, incubation time 4 h, relative to 0 h = 100%, technical replicates.
[15] abbreviates: human, Remaining peptide (%), 37 °C, incubation time 8 h, relative to 0 h = 100%, technical replicates.
[16] abbreviates: human, Remaining peptide (%), 37 °C, incubation time 24 h, relative to 0 h = 100%, technical replicates.

Where “and” joins values, the source holds several entries; their conditions need not be identical. Identical values can stand only once. Entries after “also recorded” stand apart in the source; their conditions may differ. Numbered stars: 1 amine (or outer) side, 2 acyl side, 3 side chain; on linkers, the order of the positions; unused ones are H or OH. Bridge positions count the residues as written; N and C are the ends. Square brackets hold non-standard residues; d marks the D form. Peptide text beside a SMILES is read from it. Acbc(cis-1,3) = O=C([C@H]1C[C@@H](N[*:1])C1)[*:2]

For orientation: IC50 means the concentration at which inhibition is half-maximal. A high value points to weaker potency in that assay. What is called inhibition is how much of the control response was suppressed. Read a low inhibition as little suppression. Usually half-life stands for how long it takes for the measured level to halve. The term EC50 denotes the concentration giving half of the maximal effect. As a reminder, the Kd is a measure of binding affinity in units of concentration. Read a low Kd as tighter binding.

With “^AcyFHA LNLGYRPGc-NH2 ({CH2CO}-[dY]FHALNLGYRPG[dC]-NH2; thioether N-13)”, in series [1], the cleaved bond result was “F2-H3, 24 h; also recorded: L5-N6, 24 h; also recorded: P11-G12, 24 h; also recorded: G12-c13, 24 h”.
`O=c1[nH]cc(-c2cc(-c3cc(Cl)c(F)c(OCc4ccccc4Cl)c3)c(=O)n(-c3cccnc3)c2)c(=O)[nH]1` [compound 23]: in the series with Vero E6 cells, the CC50 was 1150 nM.
For `CC(C)C[C@@H]1NC(=O)[C@H](CC(N)=O)NC(=O)[C@H](CC(C)C)NC(=O)[C@H]2C[C@H](C2)NC(=O)[C@H](Cc2c[nH]cn2)NC(=O)[C@H](Cc2ccccc2)NC(=O)[C@@H](Cc2ccc(O)cc2)NC(=O)CSC[C@H](C(N)=O)NC(=O)CNC(=O)[C@@H]2CCCN2C(=O)[C@H](CCCNC(=N)N)NC(=O)[C@H](Cc2ccc(O)cc2)NC(=O)CNC1=O` [GM4] ({CH2CO}-[dY]FH[Acbc(cis-1,3)]LNLGYRPG[dC]-NH2; thioether N-13), the kon at SARS-CoV-2 M^pro [2] was 100000 M⁻¹ s⁻¹. On SARS-CoV-2 M^pro [3], this compound gave an IC50 of 50 nM, an inhibition at 0.102 µM of 84.7%, an inhibition at 0.309 µM of 97.9% and an inhibition at 0.933 µM of 100%. At SARS-CoV-2 M^pro [3], this compound gave an inhibition at 2.75 µM of 100% and an inhibition at 8.32 µM of 100%. Further, in series [4], the cytotoxicity entry was “no cytotoxicity”. Moreover, the “Remaining peptide (%)” value in [5] (setting [9]) is 104.39% and 106.19%. Further, the “Remaining peptide (%)” value in [5] (setting [10]) is 95.61% and 97.60%. Moreover, the “Remaining peptide (%)” value in series [5] (setting [11]) is 99.57% and 100.45%. Besides, the “Remaining peptide (%)” value in series [5] (setting [12]) was 95.67% and 101.18%. For the same compound, in series [5] (37 °C, incubation time 50 h, relative to 0 h = 100%, technical replicates, 3000 min), the “Remaining peptide (%)” value is 76.05% and 78.63%. Moreover, the “Remaining peptide (%)” value in series [5] (37 °C, incubation time 100 h, relative to 0 h = 100%, technical replicates, 6000 min) was 55.56% and 56.89%. For the same compound, the “fold increase in serum (proteolytic) stability compared to alanine-substituted variant” value in [5] (GM4 vs GM4γ^14A) is on record as 12 fold. In series [5] (human), the half-life at 10 μM is 126 h. For the same compound, the share remaining at 1 h, 10 μM in series [5] (setting [13]) is 104%. The share remaining at 4 h, 10 μM in [5] (setting [14]) was 95.7%. For the same compound, in series [5] (setting [15]), the share remaining at 8 h, 10 μM turned out to be 97.7%. Also, the share remaining at 24 h, 10 μM in series [5] (setting [16]) was 82.2%. Further, in [5] (human, Remaining peptide (%), 37 °C, incubation time 50 h, relative to 0 h = 100%, technical replicates), the fraction remaining at 50 h, 10 μM was 67.9%. In addition, the fraction remaining at 100 h, 10 μM in [5] (human, Remaining peptide (%), 37 °C, incubation time 100 h, relative to 0 h = 100%, technical replicates) came to 55.7%. In [6], the “antiviral activity in cells” value is “do not manifest obvious antiviral activity”. In addition, the “hydrolysis of the peptide by M^pro” value on M^pro is given as “lack of efficient GM4 hydrolysis”.
In the case of “^AcyFHγ^1LNLGYRPGc-NH2 ({CH2CO}-[dY]FH[Acbc(cis-1,3)]LNLGYRPG[dC]-NH2; thioether N-13)”, the not cleaved entry in series [7] is listed as “complete intact peptide in the active site pocket”. For the same compound, the cleaved bond entry in series [1] is given as “L5-N6, 24 h; also recorded: N6-L7, 24 h; also recorded: R10-P11, 24 h; also recorded: P11-G12, 24 h; also recorded: G12-c13, 24 h”.
Consider `Cn1cnc(Cn2c(=O)[nH]/c(=N\c3cc4cn(C)nc4cc3Cl)n(Cc3cc(F)c(F)cc3F)c2=O)n1` [S-217622], for which, in series [8], the concentration for a half-maximal effect (EC50) was 370 nM.
For `CC[C@H](C)[C@@H]1NC(=O)[C@H](CO)NC(=O)[C@H](Cc2ccccc2)NC(=O)[C@H]2C[C@H](C2)NC(=O)[C@H](Cc2c[nH]cn2)NC(=O)[C@H](Cc2ccccc2)NC(=O)[C@@H](Cc2ccc(O)cc2)NC(=O)CSC[C@H](C(N)=O)NC(=O)[C@H](CC(C)C)NC(=O)[C@H](CCCNC(=N)N)NC(=O)[C@H](Cc2ccc(O)cc2)NC(=O)[C@H](CCCNC(=N)N)NC(=O)[C@H](Cc2ccccc2)NC1=O` [GM2] ({CH2CO}-[dY]FH[Acbc(cis-1,3)]FSIFRYRL[dC]-NH2; thioether N-13), the Kd at SARS-CoV-2 M^pro [2] stood at 71 nM. Further, the “kd (kinetic dissociation)” value on SARS-CoV-2 M^pro [2] is given as 15 10^-3 s^-1. Besides, the kon on SARS-CoV-2 M^pro [2] came to 210000 M⁻¹ s⁻¹. Moreover, it took 1750 nM to reach half-maximal inhibition against SARS-CoV-2 M^pro [3] (IC50). On SARS-CoV-2 M^pro [3], this compound displayed an inhibition at 2.75 µM of 75.7%. Moreover, the inhibition at 8.32 µM on SARS-CoV-2 M^pro [3] stood at 96.8%. Moreover, the “Remaining peptide (%)” value was 61.67% and 57.11% in series [5] (37 °C, incubation time 0.5 h, relative to 0 h = 100%, technical replicates, 30 min); 55.82% and 51.95% in series [5] (setting [9]); 34.08% and 32.68% in [5] (37 °C, incubation time 2 h, relative to 0 h = 100%, technical replicates, 120 min); 19.16% and 17.53% in series [5] (setting [10]); 10.08% and 8.62% in series [5] (setting [11]); 1.74% and 1.76% in series [5] (setting [12]). For the same compound, the half-life at 10 μM in series [5] (human) is 1.1 h. Besides, in series [5] (human, Remaining peptide (%), 37 °C, incubation time 0.5 h, relative to 0 h = 100%, technical replicates), the share remaining at 0.5 h, 10 μM turned out to be 57.7%. In series [5] (setting [13]), the fraction remaining at 1 h, 10 μM was 48.3%. The share remaining at 2 h, 10 μM in series [5] (human, Remaining peptide (%), 37 °C, incubation time 2 h, relative to 0 h = 100%, technical replicates) amounted to 36%. Besides, in series [5] (setting [14]), the amount remaining at 4 h, 10 μM amounted to 17.5%. For the same compound, the amount remaining at 8 h, 10 μM in [5] (setting [15]) was found to be 9.99%. Also, the amount remaining at 24 h, 10 μM in series [5] (setting [16]) stood at 1.85%.
